Test [1] concerns the target Human Full Length PARG (Homo sapiens (Human), UniProt Q86W56). Nature of the test: PARG enzyme assay (TR-FRET). It counts as biochemical. Background: Time-resolved FRET reads energy transfer from a long-lived donor to a nearby acceptor.
The subject of test [2] is PARG in HeLa cell line. Briefly: PARG cell assay (PAR chain immunofluorescence after MMS). It counts as cell-based. The note with it: HeLa cells. Summed up:
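HeLa cells were dosed with compound for 1 h, then given MMS at 50 μg/mL final for a further hour. Cells were methanol-fixed, permeabilised and stained overnight at 4° C with anti-PAR monoclonal antibody. Retained nuclear PAR chains, detected by indirect immunofluorescence, indicate PARG inhibition.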

The mark [3] stands for this setting: read-out: PARG Biochem IC50 Geomean.
Where [4] appears, read: Homo sapiens, MMS 50 μg/mL, read-out: PARG Cell IC50 Geomean.
Setting [5] is: Homo sapiens, MMS treatment, read-out: PARG Cell IC50.
[6] abbreviates: MMS 50 μg/mL, read-out: PARG Cell IC50 Geomean.
[7] abbreviates: MMS treatment, read-out: PARG Cell IC50.

The source of these data is patent US10239843B2 (CANCER RESEARCH TECHNOLOGY LIMITED, priority 2014, dated 2019).

Molecules are shown by their SMILES. Where two headings read alike, the source gives them in different places.

Sequence of Human Full Length PARG (Q86W56 whole entry): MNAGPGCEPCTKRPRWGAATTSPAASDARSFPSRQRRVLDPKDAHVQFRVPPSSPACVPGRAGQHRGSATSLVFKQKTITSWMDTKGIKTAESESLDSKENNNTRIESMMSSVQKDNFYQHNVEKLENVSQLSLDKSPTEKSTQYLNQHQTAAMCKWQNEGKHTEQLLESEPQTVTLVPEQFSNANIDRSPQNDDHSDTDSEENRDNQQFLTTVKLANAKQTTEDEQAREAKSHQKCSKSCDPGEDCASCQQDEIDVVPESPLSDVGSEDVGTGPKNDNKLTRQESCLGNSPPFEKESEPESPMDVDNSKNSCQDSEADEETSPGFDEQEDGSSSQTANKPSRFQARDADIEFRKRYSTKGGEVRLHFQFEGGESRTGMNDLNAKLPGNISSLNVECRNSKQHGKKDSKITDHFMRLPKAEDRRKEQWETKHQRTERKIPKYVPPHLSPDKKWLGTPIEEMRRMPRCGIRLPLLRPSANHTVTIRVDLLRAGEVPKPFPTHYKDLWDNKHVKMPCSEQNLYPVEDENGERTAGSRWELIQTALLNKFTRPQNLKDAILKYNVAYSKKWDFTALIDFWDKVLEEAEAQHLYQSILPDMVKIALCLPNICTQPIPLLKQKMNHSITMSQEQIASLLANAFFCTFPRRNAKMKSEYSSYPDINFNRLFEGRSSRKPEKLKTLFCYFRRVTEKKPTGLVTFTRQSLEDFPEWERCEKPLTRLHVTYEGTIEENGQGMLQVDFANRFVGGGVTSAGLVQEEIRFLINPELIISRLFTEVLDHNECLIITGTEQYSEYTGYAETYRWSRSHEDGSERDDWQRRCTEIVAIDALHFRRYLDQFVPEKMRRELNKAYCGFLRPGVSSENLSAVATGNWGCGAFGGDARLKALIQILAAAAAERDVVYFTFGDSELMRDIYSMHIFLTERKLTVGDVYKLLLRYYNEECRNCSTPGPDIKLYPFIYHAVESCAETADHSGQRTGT

Turning to `Cc1cc(Cn2c(=O)c3cc(S(=O)(=O)NC4(C)CC4)ccc3n(CC3CCCCN3C)c2=O)on1` (stereo not shown) [Example 275], the figures for the IC50 in test [1] (setting [3]) and in test [2] (setting [4]) were 333 nM and 304 nM, respectively.

Regarding `Cc1cc(Cn2c(=O)c3cc(S(=O)(=O)NC4(CF)CC4)ccc3n(Cc3ccc(F)cc3)c2=O)on1` [Example 518, N-[1-(Fluoromethyl)cyclopropyl]-1-[(4-fluorophenyl)methyl]-3-[(3-methylisoxazol-5-yl)methyl]-2,4-dioxo-quinazoline-6-sulfonamide], the IC50 in test [1] (read-out: PARG Biochem IC50) turned out to be 117 nM; in test [2] (setting [5]), 95 nM.

With `Cc1cc(Cn2c(=O)c3cc(S(=O)(=O)NC4(C)CC4)ccc3n(CC3CC(=O)C3)c2=O)on1` [Example 412, N-(1-Methylcyclopropyl)-3-[(3-methylisoxazol-5-yl)methyl]-2,4-dioxo-1-[(3-oxocyclobutyl)methyl]quinazoline-6-sulfonamide], the results for the IC50 in test [1] (read-out: PARG Biochem IC50) and in test [2] (setting [5]) were 440 nM and 289 nM, respectively.

As for `Cc1cc(Cn2c(=O)n(C)c(=O)c3cc(S(=O)(=O)NC4(C)CC4)ccc32)n(C)n1` [Example 127], the results for the IC50 in test [1] (setting [3]) and in test [2] (setting [4]) were 384 nM and 413 nM, respectively.

Regarding `Cn1cc(Cn2c(=O)c3cc(S(=O)(=O)NC4(C)CC4)c(F)cc3n(C)c2=O)cn1` [Example 385, 7-Fluoro-1-methyl-N-(1-methylcyclopropyl)-3-[(1-methylpyrazol-4-yl)methyl]-2,4-dioxo-quinazoline-6-sulfonamide], the IC50 stood at 341 nM in test [1] (setting [3]) and 184 nM in test [2] (setting [4]).

In the case of `Cn1cc(Cn2c(=O)c3cc(S(=O)(=O)NC4(CF)CC4)ccc3n(Cc3cncs3)c2=O)cn1` [Example 563, N-[1-(Fluoromethyl)cyclopropyl]-3-[(1-methylpyrazol-4-yl)methyl]-2,4-dioxo-1-(thiazol-5-ylmethyl)quinazoline-6-sulfonamide], the IC50 in test [1] (read-out: PARG Biochem IC50) is 8 nM; in test [2] (setting [5]), 66 nM.

Regarding `Cn1cc(Cn2c(=O)c3cc(S(=O)(=O)NC4(C#N)CC4)ccc3n(CC3CCOC3)c2=O)cn1` (stereo not shown) [Example 377], the figures for the IC50 in test [1] (setting [3]) and in test [2] (setting [4]) were 96 nM and 3990 nM, respectively.

`Cc1nc(Cn2c(=O)n(Cc3cnn(C)c3)c(=O)c3cc(S(=O)(=O)NC4(CF)CC4)ccc32)n(C)n1` [Example 547, 1-[(2,5-Dimethyl-1,2,4-triazol-3-yl)methyl]-N-[1-(fluoromethyl)cyclopropyl]-3-[(1-methylpyrazol-4-yl)methyl]-2,4-dioxo-quinazoline-6-sulfonamide]: the IC50 in test [1] (read-out: PARG Biochem IC50) was found to be 188 nM; in test [2] (setting [5]), 751 nM.

As for `Cn1cc(Cn2c(=O)n(C)c(=O)c3cc(S(=O)(=O)NC4(C)CC4)ccc32)cn1` [Example 152], the IC50 came to 463 nM in test [1] (setting [3]) and 520 nM in test [2] (setting [4]).

For the molecule `Cc1cc(Cn2nc(CC3CC3)c3ccc(S(=O)(=O)NC4(C)CC4)cc3c2=O)on1` [Example 318], the figures for the IC50 in test [1] (setting [3]) and in test [2] (setting [4]) were 352 nM and 319 nM, respectively.

Turning to `CCn1c(=O)n(Cc2cnc(C)s2)c(=O)c2cc(S(=O)(=O)NC3(C#N)CC3)ccc21` [Example 455, N-(1-Cyanocyclopropyl)-1-ethyl-3-[(2-methylthiazol-5-yl)methyl]-2,4-dioxo-quinazoline-6-sulfonamide], the IC50 in test [1] (read-out: PARG Biochem IC50) was 177 nM; in test [2] (setting [5]) it was 283 nM.

`Cn1cc(Cn2c(=O)c3cc(S(=O)(=O)NC4(C)CC4)ccc3n(CC3CCCCO3)c2=O)cn1` (stereo not shown) [Example 257]: the IC50 is 103 nM in test [1] (setting [3]) and 98 nM in test [2] (setting [4]).

For `CC(=O)Cn1c(=O)n(Cc2cnn(C)c2)c(=O)c2cc(S(=O)(=O)NC3(C)CC3)ccc21` [Example 367], the half-inhibitory concentration (IC50) in test [1] (setting [3]) was found to be 353 nM; in test [2] (setting [6]) it was 340 nM.

For `CN(C)C(=O)Cn1c(=O)c2cc(S(=O)(=O)NC3(C)CC3)ccc2n(C)c1=O` [Example 476, N,N-Dimethyl-2-[1-methyl-6-[(1-methylcyclopropyl)sulfamoyl]-2,4-dioxo-quinazolin-3-yl]acetamide], the IC50 was 3710 nM in test [1] (read-out: PARG Biochem IC50) and 1340 nM in test [2] (setting [5]).

Consider `Cc1cc(Cn2c(=O)c3cc(S(=O)(=O)NC4(C)CC4)ccc3n(CC3CCC3)c2=O)on1` [Example 288], for which the values for the IC50 in test [1] (setting [3]) and in test [2] (setting [6]) were 175 nM and 79 nM, respectively.

`Cn1cc(Cn2c(=O)c3cc(S(=O)(=O)NC4(CF)CC4)ccc3n(CC3CCOCC3)c2=O)cn1` [Example 442, N-[1-(Fluoromethyl)cyclopropyl]-3-[(1-methylpyrazol-4-yl)methyl]-2,4-dioxo-1-(tetrahydropyran-4-ylmethyl)quinazoline-6-sulfonamide]: the IC50 came out at 43 nM in test [1] (read-out: PARG Biochem IC50) and 134 nM in test [2] (setting [5]).

As for `CC[C@H](C)Cn1c(=O)n(Cc2cc(C)no2)c(=O)c2cc(S(=O)(=O)NC3(C)CC3)ccc21` [Example 466, 1-[(2S)-2-Methylbutyl]-N-(1-methylcyclopropyl)-3-[(3-methylisoxazol-5-yl)methyl]-2,4-dioxo-quinazoline-6-sulfonamide], the IC50 in test [1] (read-out: PARG Biochem IC50) stood at 274 nM; in test [2] (setting [7]) it was 232 nM.

With `Cc1cncc(Cn2c(=O)n(Cc3cnn(C)c3)c(=O)c3cc(S(=O)(=O)NC4(CF)CC4)ccc32)c1` [Example 539, N-[1-(Fluoromethyl)cyclopropyl]-3-[(1-methylpyrazol-4-yl)methyl]-1-[(5-methyl-3-pyridyl)methyl]-2,4-dioxo-quinazoline-6-sulfonamide], the IC50 in test [1] (read-out: PARG Biochem IC50) came to 73 nM; in test [2] (setting [5]), 187 nM.

Consider `Cc1ncc(Cn2c(=O)c3cc(S(=O)(=O)NC4(CF)CC4)ccc3n(C)c2=O)s1` [Example 533, N-[1-(Fluoromethyl)cyclopropyl]-1-methyl-3-[(2-methylthiazol-5-yl)methyl]-2,4-dioxo-quinazoline-6-sulfonamide], for which the IC50 amounted to 287 nM in test [1] (read-out: PARG Biochem IC50) and 282 nM in test [2] (setting [5]).

On to `Cc1cc(Cn2c(=O)n(Cc3cnn(C)c3)c(=O)c3cc(S(=O)(=O)NC4(CF)CC4)ccc32)sn1` [Example 591, N-[1-(Fluoromethyl)cyclopropyl]-1-[(3-methylisothiazol-5-yl)methyl]-3-[(1-methylpyrazol-4-yl)methyl]-2,4-dioxo-quinazoline-6-sulfonamide], for which the half-inhibitory concentration (IC50) in test [1] (read-out: PARG Biochem IC50) was determined as 30 nM; in test [2] (setting [5]), 32 nM.

Take `Cc1cc(Cn2c(=O)c3cc(S(=O)(=O)NC4(C)CC4)cc(-c4ccc(C)s4)c3n(C)c2=O)on1` [Example 493, 1-Methyl-N-(1-methylcyclopropyl)-3-[(3-methylisoxazol-5-yl)methyl]-8-(5-methyl-2-thienyl)-2,4-dioxo-quinazoline-6-sulfonamide]: the 50% inhibitory concentration (IC50) came to 453 nM in test [1] (read-out: PARG Biochem IC50) and 524 nM in test [2] (setting [5]).

In the case of `Cc1cc(Cn2nc(OC3COC3)c3ccc(S(=O)(=O)NC4(C)CC4)cc3c2=O)on1` [Example 317], the values for the IC50 in test [1] (setting [3]) and in test [2] (setting [6]) were 487 nM and 912 nM, respectively.

Take `Cn1cc(Cn2c(=O)c3cc(S(=O)(=O)NC4(CF)CC4)ccc3n(CC(F)F)c2=O)cn1` [Example 600, 1-(2,2-Difluoroethyl)-N-[1-(fluoromethyl)cyclopropyl]-3-[(1-methylpyrazol-4-yl)methyl]-2,4-dioxo-quinazoline-6-sulfonamide]: the IC50 worked out at 127 nM in test [1] (read-out: PARG Biochem IC50) and 109 nM in test [2] (setting [5]).

With `COC(C)(C)Cn1c(=O)n(Cc2cc(C)no2)c(=O)c2cc(S(=O)(=O)NC3(C)CC3)ccc21` [Example 413, 1-(2-Methoxy-2-methyl-propyl)-N-(1-methylcyclopropyl)-3-[(3-methylisoxazol-5-yl)methyl]-2,4-dioxo-quinazoline-6-sulfonamide], the results for the IC50 in test [1] (read-out: PARG Biochem IC50) and in test [2] (setting [5]) were 469 nM and 305 nM, respectively.

Regarding `Cn1cc(Cn2c(=O)c3cc(S(=O)(=O)NC4(CF)CC4)ccc3n(Cc3ncccc3F)c2=O)cn1` [Example 542, N-[1-(Fluoromethyl)cyclopropyl]-1-[(3-fluoro-2-pyridyl)methyl]-3-[(1-methylpyrazol-4-yl)methyl]-2,4-dioxo-quinazoline-6-sulfonamide], the IC50 in test [1] (read-out: PARG Biochem IC50) was 349 nM; in test [2] (setting [5]), 330 nM.

For the molecule `Cc1cc(Cn2c(=O)c3cc(S(=O)(=O)NC4(C)CC4)ccc3n(Cc3cc(C(F)(F)F)nn3C)c2=O)on1` [Example 230], the values for the IC50 in test [1] (setting [3]) and in test [2] (setting [6]) were 127 nM and 213 nM, respectively.

`Cn1cc(Cn2c(=O)c3cc(S(=O)(=O)NC4(C#N)CC4)ccc3n(CC3CC3)c2=O)cn1` [Example 346]: the IC50 in test [1] (setting [3]) came out at 47 nM; in test [2] (setting [4]), 390 nM.

As to `Cc1cc(Cn2c(=O)c3cc(S(=O)(=O)NC4(C)CC4)ccc3n(Cc3cnn(C)c3)c2=O)on1` [Example 330], the values for the IC50 in test [1] (setting [3]) and in test [2] (setting [4]) were 96 nM and 164 nM, respectively.

As to `Cn1cc(Cn2c(=O)c3cc(S(=O)(=O)NC4(C)CC4)ccc3n(CC(F)(F)F)c2=O)cn1` [Example 621, N-(1-Methylcyclopropyl)-3-[(1-methylpyrazol-4-yl)methyl]-2,4-dioxo-1-(2,2,2-trifluoroethyl)quinazoline-6-sulfonamide], the IC50 in test [1] (read-out: PARG Biochem IC50) stood at 257 nM; in test [2] (setting [5]), 135 nM.

Consider `CCOCCn1c(=O)n(Cc2cnn(C)c2)c(=O)c2cc(S(=O)(=O)NC3(CF)CC3)ccc21` [Example 612], for which the IC50 in test [1] (read-out: PARG Biochem IC50) was determined as 194 nM; in test [2] (setting [5]), 178 nM.

With `Cc1cc(Cn2c(=O)c3cc(S(=O)(=O)NC4(CF)CC4)ccc3n(Cc3cc(C)nn3C)c2=O)on1` [Example 519, 1-[(2,5-Dimethylpyrazol-3-yl)methyl]-N-[1-(fluoromethyl)cyclopropyl]-3-[(3-methylisoxazol-5-yl)methyl]-2,4-dioxo-quinazoline-6-sulfonamide], the IC50 in test [1] (read-out: PARG Biochem IC50) turned out to be 50 nM; in test [2] (setting [5]), 312 nM.

As for `Cc1cc(Cn2c(=O)c3cc(S(=O)(=O)NC4(CF)CC4)ccc3n(Cc3ncn(C)n3)c2=O)on1` [Example 553, N-[1-(Fluoromethyl)cyclopropyl]-3-[(3-methylisoxazol-5-yl)methyl]-1-[(1-methyl-1,2,4-triazol-3-yl)methyl]-2,4-dioxo-quinazoline-6-sulfonamide], the IC50 was 451 nM in test [1] (read-out: PARG Biochem IC50) and 1510 nM in test [2] (setting [7]).

In general, IC50 refers to the point on the concentration scale where inhibition reaches its midpoint.
